Experimental data as given in publication PMC4623880 (Digestive diseases and sciences, 2015).
“Also recorded” adds a separate entry of the source. Where two headings read alike, the source gives them in different places. Each block holds one compound with its values, some of them ahead of it.

What was measured:
[1] = type: in vivo, human; conditions: for Cmax: N-desmethyl sildenafil, after 2.5 mg IV bolus sildenafil; for observed maximum concentration of plasma sildenafil: 2.5 mg IV bolus
[2] = cited from earlier work
[3] = Tolerability and hemodynamics; type: in vivo, human; conditions: for tolerability / safety of IV sildenafil: both subjects, single 2.5 mg IV bolus injection
[4] = healthy volunteers; cited from earlier work
[5] = subject 1, 16 min after 2.5 mg IV bolus sildenafil
[6] = subject 1, 30 min after 2.5 mg IV bolus sildenafil
[7] = subject 1, 60 min after 2.5 mg IV bolus sildenafil
[8] = subject 1, 120 min after 2.5 mg IV bolus sildenafil
[9] = subject 1, 178 min after 2.5 mg IV bolus sildenafil
[10] = subject 1, 242 min after 2.5 mg IV bolus sildenafil
[11] = subject 1, 360 min after 2.5 mg IV bolus sildenafil
[12] = subject 1, 480 min after 2.5 mg IV bolus sildenafil
[13] = subject 2, 15 min after 2.5 mg IV bolus sildenafil
[14] = subject 2, 30 min after 2.5 mg IV bolus sildenafil
[15] = subject 2, 60 min after 2.5 mg IV bolus sildenafil
[16] = subject 2, 122 min after 2.5 mg IV bolus sildenafil
[17] = subject 2, 180 min after 2.5 mg IV bolus sildenafil
[18] = subject 2, 240 min after 2.5 mg IV bolus sildenafil
[19] = subject 2, 360 min after 2.5 mg IV bolus sildenafil
[20] = subject 2, 480 min after 2.5 mg IV bolus sildenafil

Cmax ([1]; subject 1): 2.6 ng/mL
Cmax ([1]; subject 2): 1.1 ng/mL
N-desmethyl Sildenafil Concentration ([1]; plasma, subject 1, 16 min after 2.5 mg IV bolus sildenafil): 1.21 ng/mL
N-desmethyl Sildenafil Concentration ([1]; plasma, subject 1, 30 min after 2.5 mg IV bolus sildenafil): BLQ
N-desmethyl Sildenafil Concentration ([1]; plasma, subject 1, 60 min after 2.5 mg IV bolus sildenafil): 2.26 ng/mL
N-desmethyl Sildenafil Concentration ([1]; plasma, subject 1, 88 min after 2.5 mg IV bolus sildenafil): 2.10 ng/mL
N-desmethyl Sildenafil Concentration ([1]; plasma, subject 1, 120 min after 2.5 mg IV bolus sildenafil): 2.49 ng/mL
N-desmethyl Sildenafil Concentration ([1]; plasma, subject 1, 178 min after 2.5 mg IV bolus sildenafil): 2.64 ng/mL
N-desmethyl Sildenafil Concentration ([1]; plasma, subject 1, 242 min after 2.5 mg IV bolus sildenafil): 2.19 ng/mL
N-desmethyl Sildenafil Concentration ([1]; plasma, subject 1, 360 min after 2.5 mg IV bolus sildenafil): 2.00 ng/mL
N-desmethyl Sildenafil Concentration ([1]; plasma, subject 1, 480 min after 2.5 mg IV bolus sildenafil): 1.53 ng/mL
N-desmethyl Sildenafil Concentration ([1]; plasma, subject 2, 15 min after 2.5 mg IV bolus sildenafil): BLQ
N-desmethyl Sildenafil Concentration ([1]; plasma, subject 2, 30 min after 2.5 mg IV bolus sildenafil): BLQ
N-desmethyl Sildenafil Concentration ([1]; plasma, subject 2, 60 min after 2.5 mg IV bolus sildenafil): BLQ
N-desmethyl Sildenafil Concentration ([1]; plasma, subject 2, 90 min after 2.5 mg IV bolus sildenafil): BLQ
N-desmethyl Sildenafil Concentration ([1]; plasma, subject 2, 122 min after 2.5 mg IV bolus sildenafil): BLQ
N-desmethyl Sildenafil Concentration ([1]; plasma, subject 2, 180 min after 2.5 mg IV bolus sildenafil): 1.06 ng/mL
N-desmethyl Sildenafil Concentration ([1]; plasma, subject 2, 240 min after 2.5 mg IV bolus sildenafil): BLQ
N-desmethyl Sildenafil Concentration ([1]; plasma, subject 2, 360 min after 2.5 mg IV bolus sildenafil): BLQ
N-desmethyl Sildenafil Concentration ([1]; plasma, subject 2, 480 min after 2.5 mg IV bolus sildenafil): BLQ
metabolite concentrations ([1]; plasma, subject 2, all times except 180 minutes after sildenafil injection): unmeasurable
Compound: CCCc1nn(C)c2c(=O)[nH]c(-c3cc(S(=O)(=O)N4CCNCC4)ccc3OCC)nc12 [N-desmethyl Sildenafil, N-desmethyl sildenafil]
N-desmethyl sildenafil AUC increased compared to healthy subjects ([2]; CTP class A and B cirrhosis): 154%
mean Cmax of N-desmethyl sildenafil increased compared to normal controls ([2]; CTP class A and B cirrhosis): 87%
N-desmethyl sildenafil AUC/sildenafil AUC ([2]; healthy subjects): 52%
N-desmethyl sildenafil AUC/sildenafil AUC ([2]; subjects with CTP Class A and B cirrhosis): 71%

clearance lower than mean in healthy volunteers ([1]; second value, for CL 14.9 L/hr vs 40.8 L/hr): 71%
observed maximum concentration of plasma sildenafil ([1]; subject 1 (first value)): 35 ng/mL
observed maximum concentration of plasma sildenafil ([1]; subject 2 (second value)): 20.6 ng/mL
Compound: CCCc1nn(C)c2c(=O)[nH]c(-c3cc(S(=O)(=O)N4CCN(C)CC4)ccc3OCC)nc12 [Sildenafil, sildenafil]
tolerability / safety of IV sildenafil [3]: without side effects
tolerability / safety of IV sildenafil ([3]; listed as sildenafil): without adverse events; also recorded: safe and tolerable; also recorded: can be safely administered
adverse events reported at interview ([3]; forty-eight hours after sildenafil injection): did not report any adverse events
Heart Rate [3, 5]: 53
Mean Arterial Pressure [3, 5]: 75 mmHg
Heart Rate [3, 6]: 53
Mean Arterial Pressure [3, 6]: 78 mmHg
Heart Rate [3, 7]: 55
Mean Arterial Pressure [3, 7]: 78 mmHg
Heart Rate [3, 8]: 51
Mean Arterial Pressure [3, 8]: 75 mmHg
Heart Rate [3, 9]: 50
Mean Arterial Pressure [3, 9]: 79 mmHg
Heart Rate [3, 10]: 50
Mean Arterial Pressure [3, 10]: 78 mmHg
Heart Rate [3, 11]: 53
Mean Arterial Pressure [3, 11]: 83 mmHg
Heart Rate [3, 12]: 54
Mean Arterial Pressure [3, 12]: 83 mmHg
lowest MAP observed ([3]; subject 1, at 16 and 120 minutes after sildenafil injection): 75
Heart Rate [3, 13]: 98
Mean Arterial Pressure [3, 13]: 69 mmHg
Heart Rate [3, 14]: 98
Mean Arterial Pressure [3, 14]: 73 mmHg
Heart Rate [3, 15]: 98
Mean Arterial Pressure [3, 15]: 75 mmHg
Heart Rate [3, 16]: 90
Mean Arterial Pressure [3, 16]: 81 mmHg
Heart Rate [3, 17]: 97
Mean Arterial Pressure [3, 17]: 80 mmHg
Heart Rate [3, 18]: 93
Mean Arterial Pressure [3, 18]: 75 mmHg
Heart Rate [3, 19]: 92
Mean Arterial Pressure [3, 19]: 72 mmHg
Heart Rate [3, 20]: 94
Mean Arterial Pressure [3, 20]: 75 mmHg
lowest MAP ([3]; subject 2, at 15 minutes after sildenafil injection): 69 mmHg
adverse events ([3]; up to 9 hours after sildenafil injection): No adverse events
mean clearance of sildenafil reduced compared to normal controls ([2]; CTP class A and B cirrhosis, single 50 mg oral dose): 46%
dose-corrected mean Cmax [4]: 26.6 ng/mL
mean half-life [4]: 3.9 h
